Experimental data as given in US11273152B2, “TRPV2 antagonists” (Instituto de Medicina Molecular João Lobo Antunes, priority 2017, dated 2022).

Assays:
[1] = system: sperm whale TRPV2 orthologue; test: Isothermal titration calorimetry, sperm whale TRPV2; format: binding; settings: sperm whale TRPV2 constructs; 100 μM
PC3 cell line = test: Cell viability, PC3; format: cell-based; settings: 5 and 10 μM, 24 hours
Method: 5,000 cells/well were seeded in 96 well plates with DMEM containing 2% FBS. The next day piperlongumine was added at various concentrations. […] At 24, 48 and 72 hours the media was removed and replaced with CellTiter-Blue (Promega, 1:20 in media). The plate was incubated for 90 minutes before measuring fluorescence intensity.

TRPC7 = TRPC7 (Homo sapiens, UniProt Q9HCX4); test: Fluorescence cell-based assay, TRPC7; settings: membrane potential dye, spread in log units, duplicate
Method: (§1) The assays were performed at SB Discovery (Glasgow, UK) on a fee-for-service basis. Human TRP cells were trypsinised, counted and seeded in black, clear-bottomed 96 well plates at a density of 50,000 cells per well in 100 μL volume and incubated overnight. Next day, the cells were loaded with calcium 5 dye or membrane potential dye. TRPV1-5, TRPA1, TRPM2, TRPM3, and TRPM8 were tested using the calcium 5 dye. TRPC1, TRPC3-7, and TRPM4-5 were tested using the membrane potential dye. Both dye solutions were made up in HEPES buffered Hank's balanced salt solution (HBSS). Dye solution (90 μL) was added to the wells and incubated at 37° C. for 1 hour. Test compounds and standard inhibitors (10 μL) were then added to the wells and incubated at room temperature for 10 minutes. The plates were then placed in the flexstation and fluorescence monitored every 1.52 seconds. After 20 seconds agonist was added and the fluorescence monitored for 2 minutes at 485 nm/525 nm and 530 nm/565 nm, Ex/Em, for the calcium 5 dye and the membrane potential dye respectively. Controls-TRPV1: capsazepine; TRPV2: tranilast; TRPV3: ruthenium red; TRPV4: ruthenium red; TRPV5: Gd^3+; TRPA1, ruthenium red; TRPC1: Gd^3+; TRPC3: Pyr3; TRPC4: ML 204; TRPC5: ML 204; TRPC6: ML 204; TRPC7: SKF 96365; TRPM2: 2-APB; TRPM3: Mef acid; TRPM4: clotrimazole; TRPM5: TPPO; TRPM8: 2-APB. […]

TRPV5 = TRPV5 (Homo sapiens, UniProt Q9NQA5); test: Fluorescence cell-based assay, TRPV5; settings: calcium 5 dye, duplicate
Method: as §1

HEK293 cells = test: Viability of HEK cells transiently transfected with TRPV2; format: cell-based, human
Method: 75,000 HEK293 cells were seeded in each well of a 24 well plate. The next day cells were transfected with hTRPV2-RFP plasmid (kindly gifted by Prof. Itaru Kojima, Gunma University, Japan). After incubating for 24 hours the media was changed and PL was added at 5 and 10 μM. 24 hours later cell viability was assessed using CellTitre-Blue (Promega) or Annexin V, 7-AAD staining. Transfection efficiency was assessed using flow cytometry.
Cells were harvested from plates by washing with media (HEK293) or TrypLE express (Gibco). The media was removed after centrifugation and the cells were washed twice with binding buffer before being incubated for 30 minutes at room temperature with Annexin V-APC (eBiosciences, 1:100) and 7-AAD (Pharmigen, 1:50). Samples were diluted with binding buffer and analyzed by flow cytometry using BD LSRFortessa X-20 with FACS Diva software. Samples with single stains were used as controls.

Huh-7 = test: Wound-healing scratch assay, Huh-7; format: cell-based
NCI-60 cancer cell lines = test: NCI-60 Human Tumor Cell Lines Screen; format: cell-based; settings: Gl50 and IC50 -z scores; five concentrations
Method: Piperlongumine was submitted to the NCI-60 Human Tumor Cell Lines Screen and its activity was measured at five concentration levels (0.01, 0.1, 1, 10 and 100 μM) in 59 NCI-60 cell lines with four dose response parameters (Gl50, IC50, LC50 and TGI). The TRPV2 normalized gene expression (averaged probe intensities combined from five microarray platforms) in NCI-60 cell lines was downloaded from the CellMiner database ^36,37. The Spearman correlation was used to test the interdependence between TRPV2 expression levels and piperlongumine IC50 values against 57 cancer cell lines.

[2] = target: T1, human TRPV2-RFP fusion protein (Homo sapiens, UniProt Q9Y5S1); test: Intracellular calcium imaging in HEK293 transfected with TRPV2-RFP; format: cell-based; settings: CBD 4 μM; 1 at 5 μM; 300 s post stimulation
T1 construct: Itaru Kojima, Gunma University; host or cells: HEK293, transient
Method: Cells (ATCC) were grown to 50% confluency in DMEM (Gibco) supplemented with 10% FBS (Gibco), GlutaMax (Gibco), MEM and NEAA (Gibco), 4.5 g/L glucose and 0.11 g/L sodium pyruvate. Cells were seeded in μ-ibidi 8 well plates and transfected with TRPV2-RFP^34 (kindly gifted by Prof. Itaru Kojimu Gunma University, Japan). After 48 h of incubation, cells were subjected to calcium imaging. Intracellular calcium measurements were performed with Fura-2 AM (Life Technologies) and modified from previously described studies.^12 In short, 1 hour before the measurement, cells were loaded with 5 μM Fura-2-AM for 45 minutes. Cell medium was replaced by Tyrod's solution (119 mM NaCl, 5 mM KCl, 2 mM CaCl2, 2 mM MgCl2, 6 g/L glucose, 25 mM HEPES pH 7.4). Simultaneously, the respective treatment was added to the cells (final concentration of 1% DMSO (control), 5 μM piperlongumine and 10 μM tranilast) and cells were allowed to re-adjustment for 15 minutes. Fura-2 AM emissions from 340 nm and 380 nm excitation were recorded for 1 minute before TRPV2 was activated by addition of 4 μM or 20 μM cannabidiol (CBD). Image analysis was done using the MetaFluor Analyst software. The statistical analysis was performed with astatsa.com. After calcium imaging acquisition, the cells were immediately fixed with 4% paraformaldehyde for 15 min. […]

T1 sequence (Q9Y5S1 whole entry, the tested form may be a part): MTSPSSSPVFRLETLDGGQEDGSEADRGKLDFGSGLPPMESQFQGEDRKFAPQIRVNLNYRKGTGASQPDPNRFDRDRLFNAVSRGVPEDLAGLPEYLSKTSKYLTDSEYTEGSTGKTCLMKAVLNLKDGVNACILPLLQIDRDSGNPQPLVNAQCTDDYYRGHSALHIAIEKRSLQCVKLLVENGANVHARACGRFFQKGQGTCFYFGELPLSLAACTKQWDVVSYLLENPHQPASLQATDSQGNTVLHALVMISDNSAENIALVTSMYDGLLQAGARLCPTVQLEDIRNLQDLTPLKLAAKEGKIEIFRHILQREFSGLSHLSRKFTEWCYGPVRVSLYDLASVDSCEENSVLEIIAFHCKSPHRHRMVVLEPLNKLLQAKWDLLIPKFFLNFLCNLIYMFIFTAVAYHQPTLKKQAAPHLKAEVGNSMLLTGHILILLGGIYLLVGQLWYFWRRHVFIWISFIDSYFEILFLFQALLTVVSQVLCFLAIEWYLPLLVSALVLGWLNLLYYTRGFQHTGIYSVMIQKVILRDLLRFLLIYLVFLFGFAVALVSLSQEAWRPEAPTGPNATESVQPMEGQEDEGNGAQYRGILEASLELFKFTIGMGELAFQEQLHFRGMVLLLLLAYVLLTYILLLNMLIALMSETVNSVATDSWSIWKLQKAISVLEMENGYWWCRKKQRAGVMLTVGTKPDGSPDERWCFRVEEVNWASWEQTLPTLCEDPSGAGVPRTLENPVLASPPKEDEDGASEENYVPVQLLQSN
Sequence of TRPV5 (Q9NQA5 whole entry): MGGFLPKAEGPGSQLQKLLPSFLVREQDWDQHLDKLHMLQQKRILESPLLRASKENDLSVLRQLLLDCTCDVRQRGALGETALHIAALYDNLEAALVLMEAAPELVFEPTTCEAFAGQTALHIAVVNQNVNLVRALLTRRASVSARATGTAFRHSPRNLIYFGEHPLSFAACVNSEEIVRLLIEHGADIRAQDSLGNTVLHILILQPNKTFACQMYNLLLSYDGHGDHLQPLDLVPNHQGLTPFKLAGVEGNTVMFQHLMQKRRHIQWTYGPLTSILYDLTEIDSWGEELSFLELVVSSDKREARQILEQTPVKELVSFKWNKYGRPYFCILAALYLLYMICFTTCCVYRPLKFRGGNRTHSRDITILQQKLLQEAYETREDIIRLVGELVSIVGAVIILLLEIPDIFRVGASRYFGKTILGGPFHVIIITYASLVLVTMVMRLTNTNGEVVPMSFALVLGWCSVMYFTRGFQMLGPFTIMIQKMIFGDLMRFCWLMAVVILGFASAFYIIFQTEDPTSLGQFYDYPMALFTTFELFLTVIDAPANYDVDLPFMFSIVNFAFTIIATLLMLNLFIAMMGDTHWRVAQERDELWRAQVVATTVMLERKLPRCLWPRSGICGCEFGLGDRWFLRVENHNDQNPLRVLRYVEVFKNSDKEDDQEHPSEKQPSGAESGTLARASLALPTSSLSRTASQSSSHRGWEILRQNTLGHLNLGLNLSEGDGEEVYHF
Sequence of TRPC7 (Q9HCX4 whole entry): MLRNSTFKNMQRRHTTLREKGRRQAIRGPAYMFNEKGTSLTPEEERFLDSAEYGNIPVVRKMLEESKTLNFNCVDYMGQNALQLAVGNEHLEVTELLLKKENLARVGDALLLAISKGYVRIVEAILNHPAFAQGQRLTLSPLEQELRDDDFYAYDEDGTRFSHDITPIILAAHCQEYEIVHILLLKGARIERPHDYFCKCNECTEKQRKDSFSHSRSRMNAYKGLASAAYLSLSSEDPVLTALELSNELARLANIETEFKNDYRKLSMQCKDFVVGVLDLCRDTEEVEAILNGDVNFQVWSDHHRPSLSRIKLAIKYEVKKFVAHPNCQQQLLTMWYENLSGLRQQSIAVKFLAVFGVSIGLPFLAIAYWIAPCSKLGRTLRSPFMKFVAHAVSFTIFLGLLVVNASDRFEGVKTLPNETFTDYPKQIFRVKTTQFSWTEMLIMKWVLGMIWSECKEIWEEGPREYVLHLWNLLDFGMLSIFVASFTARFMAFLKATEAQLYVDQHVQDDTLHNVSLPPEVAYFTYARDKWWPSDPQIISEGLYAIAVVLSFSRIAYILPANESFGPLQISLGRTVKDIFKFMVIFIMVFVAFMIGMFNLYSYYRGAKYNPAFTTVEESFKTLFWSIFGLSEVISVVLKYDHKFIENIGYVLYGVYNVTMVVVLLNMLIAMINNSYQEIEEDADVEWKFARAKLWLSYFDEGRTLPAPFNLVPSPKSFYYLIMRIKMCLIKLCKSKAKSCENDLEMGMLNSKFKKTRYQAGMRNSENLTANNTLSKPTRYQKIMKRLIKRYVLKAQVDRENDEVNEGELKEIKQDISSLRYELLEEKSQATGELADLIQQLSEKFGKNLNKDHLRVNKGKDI

SMILES: COc1cc(/C=C/C(=O)N2CCC=CC2=O)cc(OC)c1OC [Compound 1, piperlongumine]
- Binding by isothermal titration calorimetry [1]: did not bind
- Cell viability (PC3 cell line): cell viability was compromised
- IC50 (TRPC7): 64 ± 0.06 µM
- IC50 (TRPV5): > 100 µM
- Viability of TRPV2-transfected cells vs non-transfected controls (HEK293 cells): identical result
- Cell migration, wound healing (Huh-7): reproducible
- Anti-proliferative activity across NCI-60, most sensitive tissues (NCI-60 cancer cell lines): blood, colon and skin cancer cell lines were found to be the most sensitive
- Inhibition of CBD evoked calcium influx in transfected HEK293 cells [2]: significant difference between control and 1 (p<0.001)
